Legend:
Test in all cases: relative viability (nuclei count vs DMSO), 5 days (fraction); higher = more cells survive
[1] = compound: CCN(CCO)CCCC(C)Nc1ccnc2cc(Cl)ccc12 [Hydroxychloroquine]
Summary of the method: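 Lung cancer cell lines received five library-drug doses (not always all listed) spaced by √10, pinned on vehicle-anchored 1536-well plates after an overnight stay at 37 °C. Five days later, with no medium change, nuclei were Hoechst-stained, imaged at 4× and counted with MetaXpress. Viability is treated-well nuclei relative to vehicle-well nuclei, as a median across plates. Passing plates had control CV below 25% and at least one doubling.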

[2] = compound: CCN(CCO)CCCC(C)Nc1ccnc2cc(Cl)ccc12 [Hydroxychloroquine] + N=C(N)NC(=N)NCCc1ccccc1 [Phenformin] (partner 250 µM)
Summary of the method: (§1)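 Each reported value is a median over duplicate plates. It expresses relative viability: treated-well nuclei count divided by vehicle-well nuclei count. Lung cancer cell lines in 1536-well plates were dosed by pin tool a day after seeding, alone with one drug or with a fixed anchor-drug dose plus five library-drug doses (not always all listed) in √10 steps, and nuclei were counted after 5 days.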

[3] = compound: CCN(CCO)CCCC(C)Nc1ccnc2cc(Cl)ccc12 [Hydroxychloroquine] + COc1cccc2cc(-c3nc([C@H]4CC[C@H](C(=O)O)CC4)n4ncnc(N)c34)[nH]c12 [OSI-027] (partner 0.5 µM)
Summary of the method: as §1

[4] = compound: CCN(CCO)CCCC(C)Nc1ccnc2cc(Cl)ccc12 [Hydroxychloroquine] + CC(=O)Nc1cccc(-n2c(=O)n(C3CC3)c(=O)c3c(Nc4ccc(I)cc4F)n(C)c(=O)c(C)c32)c1 [Trametinib] (partner 0.02 µM)
Summary of the method: as §1

| Cell Line | relative viability ([1]; 0.5 µM) | relative viability ([1]; 1.581 µM) | relative viability ([1]; 5 µM) | relative viability ([1]; 15.81 µM) | relative viability ([1]; 50 µM) | relative viability ([2]; first compound 0.5 µM) | relative viability ([2]; first compound 1.581 µM) | relative viability ([2]; first compound 5 µM) | relative viability ([2]; first compound 15.81 µM) | relative viability ([2]; first compound 50 µM) | relative viability ([3]; first compound 0.5 µM) | relative viability ([3]; first compound 1.581 µM) | relative viability ([3]; first compound 5 µM) | relative viability ([3]; first compound 15.81 µM) | relative viability ([3]; first compound 50 µM) | relative viability ([4]; first compound 0.5 µM) | relative viability ([4]; first compound 1.581 µM) | relative viability ([4]; first compound 5 µM) | relative viability ([4]; first compound 15.81 µM) | relative viability ([4]; first compound 50 µM) |
| --- | --- | --- | --- | --- | --- | --- | --- | --- | --- | --- | --- | --- | --- | --- | --- | --- | --- | --- | --- | --- |
| LOU-NH91 | 0.96 | 0.794 | 0.944 | 0.95 | 0.901 | 0.704 | 0.562 | 0.679 | 0.732 | 0.466 | 0.667 | 0.616 | 0.758 | 0.701 | 0.736 | 0.795 | 0.69 | 0.799 | 0.828 | 0.848 |
| LU99A | 1.01 | 0.874 | 0.938 | 0.951 | 1.02 | 0.765 | 0.735 | 0.873 | 0.751 | 0.799 | 0.304 | 0.258 | 0.327 | 0.283 | 0.329 | 0.626 | 0.505 | 0.542 | 0.527 | 0.577 |
| LXF-289 | 1.06 | 1.01 | 1.03 | 1.02 | 1.07 | 0.533 | 0.513 | 0.517 | 0.505 | 0.495 | 0.78 | 0.77 | 0.751 | 0.781 | 0.792 | 0.659 | 0.689 | 0.674 | 0.72 | 0.759 |
| NCI-H23 | 1.04 | 0.809 | 0.961 | 0.915 | 1.01 | 0.803 | 0.76 | 0.806 | 0.797 | 0.829 | 0.684 | 0.447 | 0.572 | 0.535 | 0.572 | 0.387 | 0.387 | 0.364 | 0.36 | 0.327 |
| NCI-H322M | 0.955 | 0.933 | 0.957 | 0.935 | 0.983 | 0.704 | 0.799 | 0.786 | 0.743 | 0.744 | 0.557 | 0.535 | 0.634 | 0.519 | 0.609 | 0.497 | 0.6 | 0.511 | 0.511 | 0.537 |
| NCI-H358 | 0.851 | 0.884 | 0.88 | 0.888 | 0.877 | 0.345 | 0.284 | 0.314 | 0.32 | 0.323 | 0.666 | 0.616 | 0.783 | 0.83 | 0.991 | 0.128 | 0.122 | 0.132 | 0.131 | 0.127 |
| NCI-H1299 | 1.02 | 0.938 | 1.01 | 1.02 | 1.02 | – | – | – | – | – | – | – | – | – | – | – | – | – | – | – |
| NCI-H1563 | 0.946 | 0.744 | 0.912 | 0.99 | 0.966 | 0.677 | 0.652 | 0.649 | 0.635 | 0.635 | 0.736 | 0.625 | 0.79 | 0.794 | 0.716 | – | – | – | – | – |
| NCI-H1648 | 0.817 | 1.09 | 0.775 | 0.992 | 0.825 | – | – | – | – | – | – | 0.283 | 0.273 | 0.254 | 0.274 | 0.499 | 0.434 | 0.437 | 0.57 | 0.414 |
| NCI-H1703 | 0.912 | 0.79 | 0.946 | 0.924 | 0.898 | – | – | – | – | – | – | – | – | – | – | – | – | – | – | – |

Source: the supplement of paper PMC10307832
